These results are taken from patent US20260115190A1, “DISPERSIONS OF ETRUMADENANT” (Arcus Biosciences, Inc., priority 2022, published 2026).

One data set concerns the target P-gp (Homo sapiens, UniProt P08183). Conditions: 200 mg QD itraconazole for 5 days; reported in the literature; cited from earlier work.
A short description of data set [1]: Drug-drug interaction study with itraconazole. Type of data set: in vivo, humans. The settings on record: with coadministration of itraconazole. On the procedure:
An open-label, fixed-sequence, 2-period drug-drug interaction (DDI) study was designed to evaluate the effect of multiple doses of a strong inhibitor of CYP3A4 and P-gp on the single-dose PK of etrumadenant in humans. Etrumadenant was supplied as 25 mg capsules. Itraconazole was used as the representative strong inhibitor of CYP3A4 and P-gp. It was supplied as 10 mg/mL oral solution, Sporanox® by Janssen Pharmaceuticals (or generic equivalent). Twenty (20) healthy, adult male and female (of non-childbearing potential) participants were enrolled. Screening of participants occurred within 28 days prior to the first dosing.
On Day 1 of Period 1, a single 150 mg dose of etrumadenant was orally administered under fasting conditions (i.e., at least 10 hours of fasting prior to dosing and at least 4 hours postdose). PK sampling for etrumadenant and its metabolites was taken predose and up to 120 hours postdose. There was a washout of 5 days between the etrumadenant dose in Period 1 and the first itraconazole dose in Period 2.
In Period 2, 200 mg itraconazole was orally administered twice a day (BID) on Day 1 and once a day (QD) for 9 consecutive days (on Days 2 through 10) with a single 150 mg dose of etrumadenant orally administered 1 hour after itraconazole dosing on Day 6. Itraconazole was administered under fasting conditions. On Day 6, participants fasted for at least 10 hours prior to and at least 4 hours post etrumadenant dosing. PK sampling for etrumadenant and its metabolites was taken predose and up to 120 hours after etrumadenant dosing. PK sampling for itraconazole and 1-hydroxy-itraconazole was collected on Days 5, 6, 7, 9, and 11.
Itraconazole was administered twice on the first day of Period 2 as a loading dose to accelerate CYP3A inhibition and the inhibition was then maintained by administering itraconazole 200 mg QD for 9 consecutive days. A 200 mg BID dose level is expected to provide similar inhibition to a 400 mg QD dose. Although itraconazole reaches steady state within approximately 15 days, it has been established that QD administration of 200 mg itraconazole for 3 to 5 days allows maximum CYP3A inhibition sufficient to detect a DDI. […] As such, administration of itraconazole for at least 4 days is considered sufficient in DDI studies as a CYP3A4 and P-gp inhibitor. To maintain the level of inhibition, itraconazole was administered throughout PK sampling of etrumadenant (i.e., through Day 10 of Period 2). In addition, the itraconazole oral solution was administered under fasting conditions to maximize bioavailability.
Participants were housed on Day −1 of Period 1, at the time indicated by the clinical research unit (CRU), until after the 120-hour blood draw and completion of study procedures in Period 2. Safety was monitored throughout the study by repeated clinical and laboratory evaluations. In this study, there were no discontinued participants. All participants who received at least one dose of study drug (including participants who terminated the study early) were asked to return to the CRU approximately 14 days after the last dose for follow-up procedures, and to determine if any adverse event (AE) had occurred since the last study visit. All adverse events reported in the study were mild and resolved without treatment.

Chain of P-gp (P08183 whole entry): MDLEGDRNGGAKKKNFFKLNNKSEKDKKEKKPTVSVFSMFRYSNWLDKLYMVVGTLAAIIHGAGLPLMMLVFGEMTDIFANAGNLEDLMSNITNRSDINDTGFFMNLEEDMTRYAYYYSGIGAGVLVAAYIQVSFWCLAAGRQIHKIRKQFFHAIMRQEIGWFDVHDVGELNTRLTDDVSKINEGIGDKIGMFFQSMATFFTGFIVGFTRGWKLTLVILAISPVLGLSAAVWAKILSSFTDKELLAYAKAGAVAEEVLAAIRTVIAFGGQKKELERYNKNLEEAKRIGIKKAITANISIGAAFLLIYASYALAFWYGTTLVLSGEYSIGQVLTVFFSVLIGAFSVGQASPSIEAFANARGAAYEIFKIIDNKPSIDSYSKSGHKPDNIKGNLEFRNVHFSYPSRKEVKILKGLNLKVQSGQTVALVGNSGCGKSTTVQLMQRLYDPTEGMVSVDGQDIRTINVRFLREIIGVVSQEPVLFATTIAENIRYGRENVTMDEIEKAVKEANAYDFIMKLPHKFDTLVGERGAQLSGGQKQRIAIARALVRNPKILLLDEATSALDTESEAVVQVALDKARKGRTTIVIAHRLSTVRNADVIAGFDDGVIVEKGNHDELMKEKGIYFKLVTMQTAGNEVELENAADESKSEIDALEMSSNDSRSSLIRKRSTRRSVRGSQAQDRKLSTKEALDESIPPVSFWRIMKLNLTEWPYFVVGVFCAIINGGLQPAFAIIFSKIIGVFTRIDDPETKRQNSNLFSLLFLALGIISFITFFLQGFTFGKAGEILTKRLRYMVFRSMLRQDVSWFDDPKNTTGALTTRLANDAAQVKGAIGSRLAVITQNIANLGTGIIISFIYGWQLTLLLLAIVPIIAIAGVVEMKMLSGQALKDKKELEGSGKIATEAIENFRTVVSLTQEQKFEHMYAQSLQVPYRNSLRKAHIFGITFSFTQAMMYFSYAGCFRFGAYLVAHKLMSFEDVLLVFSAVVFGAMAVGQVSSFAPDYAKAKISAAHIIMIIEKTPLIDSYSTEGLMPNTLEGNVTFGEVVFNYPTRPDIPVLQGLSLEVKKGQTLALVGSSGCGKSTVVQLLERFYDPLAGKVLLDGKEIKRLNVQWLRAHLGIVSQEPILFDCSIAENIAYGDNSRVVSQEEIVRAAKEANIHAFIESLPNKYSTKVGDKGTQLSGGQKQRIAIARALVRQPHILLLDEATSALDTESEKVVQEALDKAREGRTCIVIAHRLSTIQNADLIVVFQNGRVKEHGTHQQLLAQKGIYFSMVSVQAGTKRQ

Regarding `C[C@H]1O[C@@H](O[C@H]2[C@@H](O)C[C@H](O[C@H]3[C@@H](O)C[C@H](O[C@H]4CC[C@@]5(C)[C@H](CC[C@@H]6[C@@H]5C[C@@H](O)[C@]5(C)[C@@H](C7=CC(=O)OC7)CC[C@]65O)C4)O[C@@H]3C)O[C@@H]2C)C[C@H](O)[C@@H]1O` [digoxin], at P-gp, the “increase of oral digoxin AUC” value was “approximately 1.7 fold”.
`Cc1c(C#N)cccc1-c1cc(-c2c[nH]nn2)nc(N)n1` [N-dealkylated etrumadenant]: in data set [1], the “decrease in metabolite-to-parent ratio MP AUC0-24” value is “approximately 87%” and the “decrease in metabolite-to-parent ratio MP Cmax” value is around 90%.
